{
  "source": "patent US20190365784A1",
  "about": "“USE OF BRASSINOSTEROID ANALOGS FOR THE TREATMENT OF DERMAL DISORDERS BY SELECTIVELY MODULATING LIVER X RECEPTORS (LXR) AND DERMAL DISEASE TREATMENT BY BRASSINOSTEROID ANALOGS ACTING AS SELECTIVE LIVER X RECEPTOR (LXR) MODULATORS” (CONSEJO NACIONAL DE INVESTIGACIONES CIENTÍFICAS Y TÉCNICAS …, priority 2015, published 2019)",
  "key": {"[1]": {"test_system": "LXR-alpha", "assay": "LXR-alpha expression in HepG2 cells (real time PCR)", "format": "cell-based, human", "conditions": "GW3965 1 uM, 6 h", "protocol": "The cells were incubated for 6 h in the presence of either Compound I (10 uM), or Compound II (10 uM), or the commercial LXR agonist GW3965 (1 uM), or Vehicle [DMSO, 0.1% (v/v)]). To obtain RNA, at the end of the incubation the cells were collected by centrifugation at 1,000 rpm for 2 min, washed with phosphate buffered saline, and lysed in 300 ul TRIZOL (Invitrogen). RNA samples were suspended in ul of RNAse free water, and their concentration determined (NanoDrop spectrophotometer). The ratio of the absorbance at 260 and 280 nm was used to assess RNA purity of an RNA preparation, with a value of 1.8-2.0 indicating pure RNA. To obtain cDNA, 1 ug of total RNA was denatured by incubating for 5 min at 70° C., before the addition of a mixture containing 0.5 ug oligo-dT primers and 25 ng/ml of random primers (Invitrogen), 1.0 mM dNTPs (Invitrogen), and 200 U M-MLV reverse transcriptase (Promega); after this the mixture was retrotranscribed at 37° C. for 60 min, followed by an incubation at 95° C. for 5 min to inactivate the enzyme. For the real time PCR amplification (Stratagene Thermal Cycler), cDNA samples were diluted 1/5 to 1/10 depending on the target amplification product. Calibration curves were obtained by use of eight successive 1:2 sample dilutions. […]"}, "[2]": {"test_system": "ABCG1", "assay": "ABCG1 expression in HepG2 cells (real time PCR)", "format": "cell-based, human", "conditions": "GW3965 1 uM, 6 h", "protocol": "(§3) The cells were incubated for 6 h in the presence of either Compound I (10 uM), or Compound II (10 uM), or the commercial LXR agonist GW3965 (1 uM), or Vehicle [DMSO, 0.1% (v/v)]). To obtain RNA, at the end of the incubation the cells were collected by centrifugation at 1,000 rpm for 2 min, washed with phosphate buffered saline, and lysed in 300 ul TRIZOL (Invitrogen). RNA samples were suspended in ul of RNAse free water, and their concentration determined (NanoDrop spectrophotometer). The ratio of the absorbance at 260 and 280 nm was used to assess RNA purity of an RNA preparation, with a value of 1.8-2.0 indicating pure RNA. To obtain cDNA, 1 ug of total RNA was denatured by incubating for 5 min at 70° C., before the addition of a mixture containing 0.5 ug oligo-dT primers and 25 ng/ml of random primers (Invitrogen), 1.0 mM dNTPs (Invitrogen), and 200 U M-MLV reverse transcriptase (Promega); after this the mixture was retrotranscribed at 37° C. for 60 min, followed by an incubation at 95° C. for 5 min to inactivate the enzyme. For the real time PCR amplification (Stratagene Thermal Cycler), cDNA samples were diluted 1/5 to 1/10 depending on the target amplification product. Calibration curves were obtained by use of eight successive 1:2 sample dilutions. Amplifications were carried out in a 25 ul final volume (5 ul cDNA sample plus 20 ul of reaction mixture) in the presence of either 3, 4 or 5 mM MgCl2 (depending on the amplified sequence), 0.25 mM dNTPs (Invitrogen), 1.25 U Taq polymerase (Invitrogen), 1 μM of the specific primers according to the target amplification sequence, and 0.025 μl SYBR Green (Roche). Melting curves were used to assess the specificity of the amplification products. […]"}, "[3]": {"test_system": "SRBEP-1", "assay": "SRBEP-1 expression in HepG2 cells (real time PCR)", "format": "cell-based, human", "conditions": "GW3965 1 uM, 6 h", "protocol": "as §3"}, "[4]": {"test_system": "ABCA1", "assay": "ABCA1 expression in HL-60 cells (real time PCR)", "format": "cell-based, human", "conditions": "GW3965 1 uM, 6 h", "experimental": "(§1) To investigate the effects of Compounds I and II on the expression of three genes involved in lipid metabolism [fatty acid synthase (FAS); and two ATP-dependent cholesterol and phospholipid transporters, such as ABCA1 and ABCG1], human promyelocytic leukemia cells (HL-60) that endogenously express LXR-alpha and LXR-beta were incubated in the presence of either Comp I or Comp II (10 uM), or GW3965 (1 uM) for 6 h. mRNA levels for FAS, ABCA1 and ABCG1 were determined by real time PCR and results were normalized to GAPDH expression. HL-60 (10^6 cells/well) were cultured in RPMI medium supplemented with 5% (v/v) fetal bovine serum, penicillin (100 IU/mL), streptomycin (100 ug/mL) y cyprofloxacin (0.4 ug/mL). […] To obtain RNA, at the end of the incubation the cells were collected by centrifugation at 1,000 rpm for 2 min, washed with phosphate buffered saline, and lysed in 300 ul TRIZOL (Invitrogen). RNA samples were suspended in […] of RNAse free water, and their concentration determined (NanoDrop spectrophotometer). […] To obtain cDNA, 1 ug of total RNA was denatured by incubating for 5 min at 70° C., before the addition of a mixture containing 0.5 ug oligo-dT primers and 25 ng/ml of random primers (Invitrogen), 1.0 mM dNTPs (Invitrogen), and 200 U M-MLV reverse transcriptase (Promega); after this the mixture was retrotranscribed at 37° C. for 60 min, followed by an incubation at 95° C. for 5 min to inactivate the enzyme. For the real time PCR amplification (Stratagene Thermal Cycler), cDNA samples were diluted 1/5 to 1/10 depending on the target amplification product. Calibration curves were obtained by use of eight successive 1:2 sample dilutions. Amplifications were carried out in a 25 ul final volume (5 ul cDNA sample plus 20 ul of reaction mixture) in the presence of either 3, 4 or 5 mM MgCl2 (depending on the amplified sequence), 0.25 mM dNTPs (Invitrogen), 1.25 U Taq polymerase (Invitrogen), 1 μM of the specific primers according to the target amplification sequence, and 0.025 μl SYBR Green (Roche). […]"}, "[5]": {"test_system": "fatty acid synthase (FAS)", "assay": "FAS expression in HL-60 cells (real time PCR)", "format": "cell-based, human", "conditions": "GW3965 1 uM, 6 h", "experimental": "as §1"}, "[6]": {"test_system": "fatty acid synthase (FAS or FASN)", "assay": "FASN expression in HepG2 cells (real time PCR)", "format": "cell-based, human", "conditions": "GW3965 1 uM, 6 h", "protocol": "as §3"}, "[7]": {"test_system": "ABCA1", "assay": "ABCA1 expression in HaCaT cells (real time PCR)", "format": "cell-based, human", "conditions": "10 uM", "experimental": "[…] Twenty four hours after irradiation, the cells were harvested and RNA isolated to assess the expression of LXR-alpha, LXR-beta, ABCA1, TNF-alpha, IL-6, and IL-8 genes. HaCaT cells were cultured in DMEM supplemented with 10% (v/v) fetal bovine serum, penicillin (100 U/mL), streptomycin ([…]) and glutamine (2 mM). […] The expressions of ABCA1, TNF-alpha, IL-6, IL-8, LXR-alpha, and LXR-beta were normalized according to glyceraldehyde-3-phosphate dehydrogenase (GAPDH) expression. The results of three independent assays, carried out in duplicate for each condition, are reported."}, "[8]": {"test_system": "TNF-alpha", "assay": "TNF-alpha expression in UV-irradiated HaCaT cells (real time PCR)", "format": "cell-based, human", "conditions": "10 uM", "experimental": "(§2) HaCaT cells—a human immortalized keratinocyte cell line—were exposed to 15 J/m^2 UVB (254 nm) irradiation. Twenty four hours after irradiation, the cells were harvested and RNA isolated to assess the expression of LXR-alpha, LXR-beta, ABCA1, TNF-alpha, IL-6, and IL-8 genes. HaCaT cells were cultured in DMEM supplemented with 10% (v/v) fetal bovine serum, penicillin (100 U/mL), streptomycin ([…]) and glutamine (2 mM). […] The expressions of ABCA1, TNF-alpha, IL-6, IL-8, LXR-alpha, and LXR-beta were normalized according to glyceraldehyde-3-phosphate dehydrogenase (GAPDH) expression. The results of three independent assays, carried out in duplicate for each condition, are reported."}, "[9]": {"test_system": "LXR-alpha", "assay": "LXR-alpha expression in UV-irradiated HaCaT cells (real time PCR)", "format": "cell-based, human", "conditions": "10 uM, 24 h after UV, vs. DMSO (UV, 24 h) and GW3965 (UV, 24 h)", "experimental": "as §2"}, "[10]": {"biological_target": "T1, LXR-alpha (Homo sapiens, UniProt Q13133)", "T1 sequence (Q13133 1-447)": "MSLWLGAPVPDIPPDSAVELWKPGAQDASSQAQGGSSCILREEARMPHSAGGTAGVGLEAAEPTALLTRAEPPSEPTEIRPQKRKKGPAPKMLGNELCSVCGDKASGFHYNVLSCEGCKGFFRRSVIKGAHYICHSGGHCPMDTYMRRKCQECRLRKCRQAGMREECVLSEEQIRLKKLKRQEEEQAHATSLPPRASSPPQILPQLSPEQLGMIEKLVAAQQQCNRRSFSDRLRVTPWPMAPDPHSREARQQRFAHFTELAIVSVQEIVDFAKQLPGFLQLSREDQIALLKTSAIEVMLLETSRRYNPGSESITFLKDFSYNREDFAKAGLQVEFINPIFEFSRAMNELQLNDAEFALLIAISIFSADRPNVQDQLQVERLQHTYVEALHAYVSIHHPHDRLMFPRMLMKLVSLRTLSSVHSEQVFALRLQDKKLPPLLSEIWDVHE", "T1 sequence (P19793 1-462 partner)": "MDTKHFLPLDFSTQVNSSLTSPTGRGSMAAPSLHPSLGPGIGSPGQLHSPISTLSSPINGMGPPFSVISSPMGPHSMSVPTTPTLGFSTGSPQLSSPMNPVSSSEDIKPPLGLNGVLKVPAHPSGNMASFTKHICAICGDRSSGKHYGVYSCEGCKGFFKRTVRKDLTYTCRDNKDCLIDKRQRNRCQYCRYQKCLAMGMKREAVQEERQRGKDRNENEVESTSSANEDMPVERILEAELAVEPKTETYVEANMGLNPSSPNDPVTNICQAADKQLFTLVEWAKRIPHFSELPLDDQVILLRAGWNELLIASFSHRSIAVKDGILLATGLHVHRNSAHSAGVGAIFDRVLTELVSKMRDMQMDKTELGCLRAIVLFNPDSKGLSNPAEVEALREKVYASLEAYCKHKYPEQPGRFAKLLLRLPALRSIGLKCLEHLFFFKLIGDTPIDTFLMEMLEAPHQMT", "assay": "LXR-alpha/RXR LRE-luciferase reporter in transfected HEK293T cells", "format": "cell-based", "conditions": "GW3965 1 uM, 18 h", "text": "Since we had previously shown that the beneficial effects of the compounds of the invention are independent of glucocorticoid receptor (GR) activation, we set forth to investigate if they might exert their actions through activation of liver X receptors (LXR). For this purpose we used cultured cells transiently transfected with LXR-alpha, the retinoid X receptor (RXR) and a LXR response element-luciferase reporter (LRE-LUC). A. Human embryonic kidney cells (HEK293T; 5×10^5 cells/well) were cultured in DMEM medium supplemented with 10% (v/v) fetal bovine serum, 100 ug/ml of streptomycin, 100 IU/ml of penicillin and 2 mM glutamine. For the transient transfections, the cell cultures were added with plasmids carrying LXR-alpha (pLXR-alpha; 0.6 ug), the retinoid X receptor (pRXR; 0.2 ug), a LXR response element-luciferase reporter (pRE-LUC; 0.7 ug) and beta-galactosidase gene (pRSV-LacZ; 0.6 ug) as a transfection control, using Lipofectamine 2000 (Invitrogen). […] Compounds III to VI are […] analogs bearing a fluorine atom at C-6. To assess LXR-alpha activation, at the end of the incubation period luciferase activity was measured by use of a luciferase assay system (Promega). The results of three independent assays, carried out in duplicate for each condition, are reported."}, "[11]": {"test_system": "IL-8", "assay": "IL-8 expression in UV-irradiated HaCaT cells (real time PCR)", "format": "cell-based, human", "conditions": "10 uM, 24 h after UV, normalized to GAPDH", "experimental": "as §2"}, "[12]": {"test_system": "ABCG1", "assay": "ABCG1 expression in HL-60 cells (real time PCR)", "format": "cell-based, human", "conditions": "GW3965 1 uM, 6 h", "experimental": "as §1"}},
  "data": [
    {"compound": "O=C(O)Cc1cccc(OCCCN(Cc2cccc(C(F)(F)F)c2Cl)CC(c2ccccc2)c2ccccc2)c1", "note": "[GW3965, reference compound]", "values": [
      {"measurement": "induction of LXR-alpha expression compared with DMSO treated HepG2", "setting": "[1]", "value": 3.5, "unit": "times"},
      {"measurement": "ABCG1 expression higher than in vehicle (DMSO) treated controls", "setting": "[2]", "value": 60, "unit": "times"},
      {"measurement": "SRBEP-1 expression higher than in vehicle (DMSO) treated controls", "setting": "[3]", "value": 4.6, "unit": "times"},
      {"measurement": "ABCA1 expression higher than in vehicle-treated controls", "setting": "[4]", "value": "~3", "unit": "times"},
      {"measurement": "FAS expression higher than in vehicle-treated controls", "setting": "[5]", "value": 1.8, "unit": "times"},
      {"measurement": "FASN expression higher than in vehicle (DMSO) treated controls", "setting": "[6]", "value": 3.7, "unit": "times"},
      {"measurement": "induction of ABCA1 expression versus Comp I- or Comp II-treated cells", "setting": "[7]; HaCaT, 24 h after UV exposure", "value": "stronger"},
      {"measurement": "induction of ABCA1 expression versus Comp I- or Comp II-treated cells", "setting": "[7]; non-irradiated HaCaT", "value": "stronger"},
      {"measurement": "TNF-alpha expression versus Comp I-treated cells", "setting": "[8]; 24 h after UV", "value": "significantly higher"},
      {"measurement": "TNF-alpha expression versus DMSO-treated cells", "setting": "[8]; 24 h after UV (254 nm, 15 J/m^2), normalized to GAPDH", "value": "significantly lower"},
      {"measurement": "LXR-alpha expression", "setting": "[9]", "value": "higher in HaCaT incubated in the presence of DMSO compared with non-irradiated cells and GW3965-treated cells"},
      {"measurement": "LXR-alpha driven gene expression, increase compared with vehicle-treated cells", "setting": "[10]", "value": 3, "unit": "fold"},
      {"measurement": "IL-8 expression versus DMSO-treated cells", "setting": "[11]", "value": "significantly lower"},
      {"measurement": "ABCG1 expression higher than in vehicle-treated controls", "setting": "[12]", "value": "~10", "unit": "times"}
    ]}
  ]
}
